Here are results for 17 compounds from ChEMBL document CHEMBL6109065, “Synthesis, antibacterial and anticancer activity of azo-based and aminomethylene derivatives of cyclic β-keto sulfones” (Bioorg Med Chem Lett, 2025).

As a reminder, the MIC is the least concentration at which growth counts as inhibited. By inhibition is commonly meant the drop in the measured response relative to a control, in per cent. In general, EC50 refers to the concentration needed to bring the measured effect to its halfway point.

The subject of one data set is Staphylococcus aureus. Description: Antibacterial activity against Staphylococcus aureus assessed as reduction in bacterial growth. It is filed as functional.
The next data set deals with Escherichia coli. Description: Antibacterial activity against Escherichia coli assessed as reduction in bacterial growth. It is filed as functional.
The next data set has as its system Pseudomonas aeruginosa. Description: Antibacterial activity against Pseudomonas aeruginosa assessed as reduction in bacterial growth. It is filed as functional.
For data set [1], the system named is MDA-MB-231. Description: Cytotoxicity against human MDA-MB-231 cells assessed as inhibition of cell growth at 0.5 mM relative to control. It is filed as functional.
A short description of data set [2]: Cytotoxicity against MAEC cells assessed as inhibition of cell growth at 0.5 mM relative to control. As to conditions: mouse. It is filed as toxicity, cell-based.
Data set [3] concerns MDA-MB-231. The data set is described as follows: Cytotoxicity against human MDA-MB-231 cells assessed as inhibition of cell viability. It is filed as functional, cell-based.
The nature of data set [4]: Cytotoxicity against MAEC cells assessed as cell viability. The data set is classed as toxicity, cell-based. The following applies: mouse.

In brackets after ≈: the same amount, converted by molar mass.

Regarding `NS(=O)(=O)c1ccc(N/N=C2\C(=O)C3(CCCC3)CS2(=O)=O)cc1`, the MIC in the data set on Staphylococcus aureus was 94 µM (≈ 34.9 µg/mL); with Escherichia coli, 188 µM (≈ 69.8 µg/mL); with Pseudomonas aeruginosa, 750 µM (≈ 279 µg/mL). Moreover, the figures for the inhibition at 500 µM (in the data set on MDA-MB-231 [1]; in data set [2]) were 81% and 1%, respectively.

`CC(C)(C)OC(=O)N1CC2(C1)CS(=O)(=O)/C(=N/Nc1cccc(S(N)(=O)=O)c1)C2=O`: the values for the MIC in the data set on Staphylococcus aureus, with Escherichia coli and with Pseudomonas aeruginosa were 188 µM (≈ 86.2 µg/mL), 188 µM (≈ 86.2 µg/mL) and over 750 µM, respectively. The inhibition at 500 µM in the data set on MDA-MB-231 [1] came to 63%; in data set [2] it was 6%.

As for `O=C1/C(=C\NCc2ccccc2)S(=O)(=O)CC12CC2`, the MIC in the data set with Staphylococcus aureus, with Escherichia coli and in the data set with Pseudomonas aeruginosa was 750 µM (≈ 208 µg/mL) throughout. Further, the EC50 in the data set on MDA-MB-231 [3] was determined as 270 µM. The values for the inhibition at 500 µM (in the data set with MDA-MB-231 [1]; in data set [2]) were 90% and 17%, respectively.

For the compound `CC1(C)CS(=O)(=O)/C(=N/Nc2ccc(S(N)(=O)=O)cc2)C1=O`, the MIC was 188 µM (≈ 64.9 µg/mL) with Staphylococcus aureus, 188 µM (≈ 64.9 µg/mL) in the data set on Escherichia coli and 375 µM (≈ 130 µg/mL) in the data set with Pseudomonas aeruginosa. The inhibition at 500 µM in the data set with MDA-MB-231 [1] stood at 51%; in data set [2], 3%.

As for `CC1(C)CS(=O)(=O)/C(=N/Nc2cccc(S(N)(=O)=O)c2)C1=O`, the MIC in the data set on Staphylococcus aureus was 23 µM (≈ 7.94 µg/mL); in the data set on Escherichia coli it was 188 µM (≈ 64.9 µg/mL); with Pseudomonas aeruginosa it was over 750 µM. In addition, the inhibition at 500 µM worked out at 78% in the data set with MDA-MB-231 [1] and 1% in data set [2].

In the case of `CC1(C)CS(=O)(=O)/C(=C/NCc2ccccc2)C1=O`, the results for the MIC in the data set with Staphylococcus aureus, in the data set with Escherichia coli and in the data set with Pseudomonas aeruginosa were 94 µM (≈ 26.3 µg/mL), 750 µM (≈ 210 µg/mL) and 750 µM (≈ 210 µg/mL), respectively. Moreover, the EC50 with MDA-MB-231 [3] is 283 µM. The inhibition at 500 µM was found to be 88% with MDA-MB-231 [1] and 10% in data set [2].

In the case of `CC(C)(C)OC(=O)N1CCC2(CC1)CS(=O)(=O)/C(=N/Nc1ccc(S(N)(=O)=O)cc1)C2=O`, the MIC in the data set with Staphylococcus aureus was 375 µM (≈ 182 µg/mL); in the data set with Escherichia coli it was 750 µM (≈ 365 µg/mL); in the data set on Pseudomonas aeruginosa, over 750 µM. Also, in the data set on MDA-MB-231 [3], the EC50 stood at 249 µM. Moreover, the inhibition at 500 µM in the data set on MDA-MB-231 [1] came to 93%; in data set [2], 11%.

As for `O=C1/C(=C\Nc2ccccc2)S(=O)(=O)CC12CC2`, the MIC with Staphylococcus aureus was over 750 µM; in the data set with Escherichia coli, over 750 µM; with Pseudomonas aeruginosa, 375 µM (≈ 98.7 µg/mL). Also, the inhibition at 500 µM with MDA-MB-231 [1] came out at 19%; in data set [2] it was 6%.

Consider `NS(=O)(=O)c1cccc(N/N=C2\C(=O)C3(CCCC3)CS2(=O)=O)c1`, for which the MIC is 188 µM (≈ 69.8 µg/mL) in the data set with Staphylococcus aureus, 188 µM (≈ 69.8 µg/mL) in the data set with Escherichia coli and over 750 µM in the data set on Pseudomonas aeruginosa. The inhibition at 500 µM was found to be 21% in the data set on MDA-MB-231 [1] and 10% in data set [2].

Take `CC(C)(C)OC(=O)N1CC2(C1)CS(=O)(=O)/C(=N/Nc1ccc(S(N)(=O)=O)cc1)C2=O`: the results for the MIC in the data set on Staphylococcus aureus, in the data set with Escherichia coli and in the data set with Pseudomonas aeruginosa were 23 µM (≈ 10.5 µg/mL), 188 µM (≈ 86.2 µg/mL) and 750 µM (≈ 344 µg/mL), respectively. The inhibition at 500 µM came to 21% in the data set with MDA-MB-231 [1] and 20% in data set [2].

As to `CC(C)(C)OC(=O)N1CCC2(CC1)CS(=O)(=O)/C(=N/Nc1cccc(S(N)(=O)=O)c1)C2=O`, the MIC in the data set on Staphylococcus aureus is 375 µM (≈ 182 µg/mL); in the data set with Escherichia coli, 188 µM (≈ 91.5 µg/mL); with Pseudomonas aeruginosa it was over 750 µM. For the same compound, the inhibition at 500 µM came out at 37% in the data set with MDA-MB-231 [1] and 7% in data set [2].

`Cc1ccc(N/N=C2\C(=O)C3(CCCC3)CS2(=O)=O)cc1`: the MIC with Staphylococcus aureus was over 750 µM; in the data set with Escherichia coli it was over 750 µM; in the data set on Pseudomonas aeruginosa it was 750 µM (≈ 230 µg/mL). Moreover, the inhibition at 500 µM in the data set with MDA-MB-231 [1] worked out at 66%; in data set [2] it was 26%.

For `CC1(C)CS(=O)(=O)/C(=C/Nc2ccccc2)C1=O`, the MIC amounted to 94 µM (≈ 24.9 µg/mL) in the data set with Staphylococcus aureus, 188 µM (≈ 49.9 µg/mL) in the data set on Escherichia coli and 375 µM (≈ 99.5 µg/mL) with Pseudomonas aeruginosa. Further, the inhibition at 500 µM (with MDA-MB-231 [1]; in data set [2]) was 7% throughout.

In the case of `NS(=O)(=O)c1ccc(N/N=C2\C(=O)C3(CC3)CS2(=O)=O)cc1`, the values for the MIC in the data set on Staphylococcus aureus, with Escherichia coli and in the data set with Pseudomonas aeruginosa were 188 µM (≈ 64.6 µg/mL), 94 µM (≈ 32.3 µg/mL) and over 750 µM, respectively. Further, the inhibition at 500 µM in the data set on MDA-MB-231 [1] was 4%; in data set [2], 1%.

Consider `CCC1(C)CCS(=O)(=O)/C(=N/Nc2ccc(S(N)(=O)=O)cc2)C1=O` (stereo not given), for which the MIC with Staphylococcus aureus was 375 µM (≈ 140 µg/mL); with Escherichia coli, 750 µM (≈ 280 µg/mL); in the data set with Pseudomonas aeruginosa it was 750 µM (≈ 280 µg/mL). In addition, the inhibition at 500 µM was determined as 57% in the data set with MDA-MB-231 [1] and 100% in data set [2]. The EC50 in data set [4] came to 78 µM.

With `Nc1cccc(S(N)(=O)=O)c1`, the MIC in the data set on Staphylococcus aureus turned out to be 375 µM (≈ 64.6 µg/mL); in the data set on Escherichia coli, 750 µM (≈ 129 µg/mL); in the data set with Pseudomonas aeruginosa, 750 µM (≈ 129 µg/mL). The inhibition at 500 µM in the data set with MDA-MB-231 [1] was found to be 30%; in data set [2] it was 100%. Moreover, in data set [4], the EC50 was found to be 93 µM.

Take `Nc1ccc(S(N)(=O)=O)cc1` [SULFANILAMIDE]: the MIC in the data set on Staphylococcus aureus was found to be 750 µM (≈ 129 µg/mL); with Escherichia coli, 375 µM (≈ 64.6 µg/mL); in the data set on Pseudomonas aeruginosa it was 750 µM (≈ 129 µg/mL). Besides, the inhibition at 500 µM in the data set with MDA-MB-231 [1] was determined as 57%; in data set [2], 6%.
